In ChEMBL document CHEMBL1201862, “PubChem BioAssay data set” (2004):
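All cell lines were grown in 96-well plates and treated with compound for 48 hours. GI50: concentration for 50% inhibition of growth.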 Calls of active or inactive are those of the source. No stated cut-off is given here; in the data, active = GI50 up to about 1.1 µM and inactive = higher. Bridge positions count the residues as written; N and C are the ends. Where a SMILES comes first, the peptide text is derived from it. Square brackets hold non-standard residues; d marks the D form. Peptide text beside a SMILES is read from it. I, II: the chains in the order shown. The star is where a group is joined. * marks the point of attachment. Quinoxaline2carbonyl = O=C(c1cnc2ccccc2n1)*; NMeV = CN[CH](C(=O)O)C(C)C; NMeC = CN[CH](CS)C(=O)O; Boc = CC(C)(C)OC(=O)*; nBu = CCCC*

How the values were obtained:
Test in all cases: NCI anticancer screen, dose series, 48 h
BT-549 = system: BT-549
Hs-578T = system: Hs-578T
MDA-N = system: MDA-N
DU-145 = system: DU-145
DMS-273 = system: DMS-273
M19-MEL = system: M19-MEL
LXFL 529 = system: LXFL 529

Compound	GI50 (BT-549)	GI50 (Hs-578T)	GI50 (MDA-N)	GI50 (DU-145)	GI50 (DMS-273)	GI50 (M19-MEL)	GI50 (LXFL 529)
CN(NC(=O)c1ccc(Cl)cc1)C1=NCCCCN1	> 100 µM (inactive)	> 100 µM (inactive)	> 100 µM (inactive)	–	–	–	–
COc1ccc(C2=NN(C(=O)c3cccnc3)C(O)(c3cc(F)c(Cl)cc3Cl)C2)cc1OC (stereo not given)	19.3 µM (inactive)	19.4 µM (inactive)	21.3 µM (inactive)	27.9 µM (inactive)	–	–	–
COC1C(O)C(C)OC(O[C@@H]2C[C@H]3CC[C@@H]4[C@H](CC[C@]5(C)[C@@H](C6=CC(=O)OC6)CC[C@]45O)[C@@]3(C)[C@H](O)C2)C1O (stereo not given in full)	< 0.0246 µM (active)	0.182 µM (active)	0.0166 µM (active)	< 0.0302 µM (active)	–	–	–
Cc1ccc(SCC(CF)OC(C)n2cnc3c(O)nc(N)nc32)cc1 (stereo not given)	19.8 µM (inactive)	> 100 µM (inactive)	> 100 µM (inactive)	> 100 µM (inactive)	–	–	–
CC(C)C1=CC23CCC4C(C)(C(=O)O)CCCC4(C)C2CC1C1C(=O)N(CCCCCCN2C(=O)C4C5CC6C7(C)CCCC(C)(C(=O)O)C7CCC6(C=C5C(C)C)C4C2=O)C(=O)C13 (stereo not given)	–	12.3 µM (inactive)	11.1 µM (inactive)	> 10 µM (inactive)	–	–	–
Clc1ccc(C(Cc2ccccc2)c2c(Cl)nc(N3CCNCC3)nc2Cl)cc1 (stereo not given)	21.3 µM (inactive)	14.8 µM (inactive)	–	14.5 µM (inactive)	–	–	–
CC(=C(C(N)=O)C(N)=O)C1C=C(c2cccs2)CC(c2ccc(Cl)cc2)=C1O (stereo not given)	16.1 µM (inactive)	> 100 µM (inactive)	35.1 µM (inactive)	63.5 µM (inactive)	–	–	–
COc1ccc(CC2Cc3ccccc3CCN2)cc1OC (stereo not given)	> 50 µM (inactive)	23.8 µM (inactive)	> 50 µM (inactive)	> 50 µM (inactive)	–	–	–
CC(=O)/C(=C/N1CCNC1=S)C(=O)Nc1ccccc1C	> 100 µM (inactive)	> 100 µM (inactive)	> 100 µM (inactive)	> 100 µM (inactive)	–	–	–
CCCCOc1ccc(CC(NC(=O)OC(C)(C)C)C(=O)NC(C)C(=O)NC(Cc2ccccc2)C(=O)NCC(N)=O)cc1 (stereo not given) (Boc-Y(nBu)AFG-NH2; configuration not given here)	> 100 µM (inactive)	> 100 µM (inactive)	61.9 µM (inactive)	> 100 µM (inactive)	–	–	–
O=C(/C=C/c1cccs1)c1ccc(C(=O)/C=C/c2cccs2)cc1	> 100 µM (inactive)	> 100 µM (inactive)	–	> 100 µM (inactive)	–	–	–
COCCOCCOC1=C(Cl)C(=O)c2c(O)ccc(O)c2C1=O	2.15 µM (inactive)	3.11 µM (inactive)	5.02 µM (inactive)	9.31 µM (inactive)	–	–	–
O=C(O)CSc1ccc2nc3ccccc3c(O)c2c1	–	–	–	–	> 100 µM (inactive)	> 100 µM (inactive)	> 100 µM (inactive)
COc1ccc(C(=O)Oc2c(C#N)sc3c2c(=O)n(-c2ccccc2)c(=S)n3-c2ccccc2)cc1	–	25.9 µM (inactive)	> 10 µM (inactive)	33 µM (inactive)	–	–	–
CC1NC(=O)C(NC(=O)c2cnc3ccccc3n2)COC(=O)C(C(C)C)N(C)C(=O)C2CSSCC(C(=O)N(C)C(C(C)C)C(=O)OCC(NC(=O)c3cnc4ccccc4n3)C(=O)NC(C)C(=O)N2C)N(C)C1=O (stereo not given) (I: Quinoxaline2carbonyl-SA[NMeC][NMeV] / II: Quinoxaline2carbonyl-SA[NMeC][NMeV]; ester I:1-II:C, I:C-II:1; disulfide I:3-II:3; configuration not given here)	< 0.01 µM (active)	< 0.01 µM (active)	< 0.01 µM (active)	< 0.01 µM (active)	–	–	–
CCCCCCCC/C=C/CCCCCCCC(=O)N(O)C1CC(n2cc(C)c(=O)[nH]c2=O)OC1CO (stereo not given)	–	–	–	–	5.07 µM (inactive)	5.3 µM (inactive)	10.6 µM (inactive)
CCCCCC(=O)OCC1(CO)C/C(=C\CC(C(C)C)C(C)C)C(=O)O1 (stereo not given)	> 100 µM (inactive)	24.5 µM (inactive)	> 100 µM (inactive)	> 100 µM (inactive)	–	–	–
CCN(CC)Cc1sc2nc3ccccc3n2c1-c1ccc(OC)cc1	32.7 µM (inactive)	34.9 µM (inactive)	2.61 µM (inactive)	35.4 µM (inactive)	–	–	–
COC(=O)[C@@H](Nc1ccccc1)[C@@]1(C(=O)OC)SC12c1ccccc1-c1ccccc12	75.5 µM (inactive)	> 100 µM (inactive)	61.1 µM (inactive)	> 100 µM (inactive)	–	–	–
CC[C@@]1(N(C)C)C(=O)OCc2c1cc1n(c2=O)Cc2cc3ccccc3nc2-1	20.3 µM (inactive)	–	–	21.1 µM (inactive)	–	–	–
COc1ccc(C(=O)OCC2OC(n3cnc4c(=S)nc[nH]c43)C(OC(=O)c3ccc(OC)cc3)C2OC(=O)c2ccc(OC)cc2)cc1 (stereo not given)	–	–	–	–	15 µM (inactive)	> 100 µM (inactive)	> 100 µM (inactive)
CCN1CCCCCCCCCC(=N/O)/C(=N\O)C1	> 100 µM (inactive)	–	> 100 µM (inactive)	> 100 µM (inactive)	–	–	–
O=C1CSC(c2ccccc2O)N1c1ccc2c(c1)Oc1c(Cl)c3c(c(Cl)c1=N2)Oc1cc(N2C(=O)CSC2c2ccccc2O)ccc1N=3 (stereo not given)	–	30.3 µM (inactive)	38.4 µM (inactive)	42.4 µM (inactive)	–	–	–
CC1(C)CCCOc2cccc(c2)OCCCC(C)(C)C1=O	29.8 µM (inactive)	39.7 µM (inactive)	45.2 µM (inactive)	85.3 µM (inactive)	–	–	–
O=C1C(S(=O)(=O)c2ccccc2)=C(CS(=O)(=O)c2ccccc2)[C@@H](OCc2ccccc2)[C@@H]1OCc1ccccc1	13.5 µM (inactive)	23 µM (inactive)	23 µM (inactive)	35.2 µM (inactive)	–	–	–
NC(=O)C(=O)c1ncn(Cc2ccccc2)c1N	–	> 100 µM (inactive)	> 100 µM (inactive)	> 100 µM (inactive)	–	–	–

Compound	GI50 (BT-549)	GI50 (Hs-578T)	GI50 (MDA-N)	GI50 (DU-145)	GI50 (DMS-273)	GI50 (M19-MEL)	GI50 (LXFL 529)
COc1cc(C2c3cc4c(cc3OC(Nc3ccccc3)C2C)OCO4)cc(OC)c1O (stereo not given)	11.5 µM (inactive)	–	1.18 µM (inactive)	4.02 µM (inactive)	–	–	–
COC(=O)Nc1nc2ccc(S(=O)(=O)SC)cc2[nH]1	10.1 µM (inactive)	20.5 µM (inactive)	–	6.05 µM (inactive)	–	–	–
c1ccc2c(CSCc3cccc4ccccc34)cccc2c1	> 100 µM (inactive)	> 100 µM (inactive)	> 100 µM (inactive)	> 100 µM (inactive)	–	–	–
O=c1[nH]nc(Cc2ccccc2)n1/N=C/c1ccc([N+](=O)[O-])cc1	> 100 µM (inactive)	> 100 µM (inactive)	> 100 µM (inactive)	> 100 µM (inactive)	–	–	–
CC(=O)C1C(=O)C(=O)N(c2ccc(Cl)c(Cl)c2)C1=O (stereo not given)	> 100 µM (inactive)	–	> 100 µM (inactive)	> 100 µM (inactive)	–	–	–
NC(=O)Cc1nc2c(N)ncnc2n1C1OC(CO)C(O)C1O (stereo not given)	> 100 µM (inactive)	> 100 µM (inactive)	> 100 µM (inactive)	> 100 µM (inactive)	–	–	–
COC(=O)CCc1ccc2c(c1)[C@H](C(=O)OC)[C@@H](c1ccc(O)cc1)O2	74.5 µM (inactive)	> 100 µM (inactive)	> 100 µM (inactive)	> 100 µM (inactive)	–	–	–
C(=N\c1ccc(-c2cc(-c3ccccc3)nc3ccc4ccccc4c23)cc1)/c1ccccc1	–	5.86 µM (inactive)	24.4 µM (inactive)	20.7 µM (inactive)	–	–	–
FC1=C2CCCCCC2SC1(F)F (stereo not given)	> 100 µM (inactive)	> 100 µM (inactive)	42.2 µM (inactive)	> 100 µM (inactive)	–	–	–
CC1C(c2ccc(N(C)C)cc2)c2cc3c(cc2OC1N1CCCC1)OCO3 (stereo not given)	38.2 µM (inactive)	28.8 µM (inactive)	14.6 µM (inactive)	66.2 µM (inactive)	–	–	–
Cc1ccc2[nH]c3c(C)c4cc[n+](C)cc4c(C)c3c2c1	0.753 µM (active)	0.232 µM (active)	4.03 µM (inactive)	0.628 µM (active)	2.33 µM (inactive)	–	0.743 µM (active)
C1=CN2C[n+]3ccc4ccccc4c3N=C2c2ccccc21	7.98 µM (inactive)	3.92 µM (inactive)	2.26 µM (inactive)	6.62 µM (inactive)	–	–	–
ClC1CCC2OOC1O2 (stereo not given)	–	–	–	–	> 100 µM (inactive)	> 100 µM (inactive)	–
COCCOCCOCCOc1ccc(C(C#N)N(CCc2ccccc2)C(=O)c2cc(C(=O)N(CCc3ccccc3)C(C#N)c3ccc(OCCOCCOCCOC)cc3)cc(C(=O)N(CCc3ccccc3)C(C#N)c3ccc(OCCOCCOCCOC)cc3)c2)cc1 (stereo not given)	> 100 µM (inactive)	54.3 µM (inactive)	> 100 µM (inactive)	> 100 µM (inactive)	–	–	–
Cc1ccc(/C=C2\Cc3cccc(C)c3C2=O)c(C(=O)O)c1	62.7 µM (inactive)	> 100 µM (inactive)	> 100 µM (inactive)	> 100 µM (inactive)	–	–	–
CC1(C)Oc2ccc3c(=O)cc(-c4ccc(F)cc4)oc3c2C1C(=O)O (stereo not given)	–	> 100 µM (inactive)	> 100 µM (inactive)	> 100 µM (inactive)	–	–	–
CCC1(O)C[C@H]2CN(CCCc3c([nH]c4ccccc34)[C@@](C(=O)OC)(c3cc4c(cc3OC)N(C)C3[C@](O)(C(=O)OC)[C@H](OC(C)=O)[C@]5(CC)C=CCN6CC[C@]43[C@H]65)C2)C1 (stereo not given in full)	–	–	–	–	0.406 µM (active)	0.902 µM (active)	0.581 µM (active)
CC(C)(C)OC(=O)N1CCCC1C(=O)NC(c1ccccc1)c1ccccc1 (stereo not given)	> 100 µM (inactive)	> 100 µM (inactive)	> 100 µM (inactive)	> 100 µM (inactive)	–	–	–
CC1CCCN1CCCOC(=O)c1ccc(OC2C=CCCC2)cc1 (stereo not given)	40.6 µM (inactive)	32.4 µM (inactive)	39.5 µM (inactive)	> 100 µM (inactive)	–	–	–
CO[C@@]12C[C@@H](C)C3=CCC(C)=C3CC1=C(C)C(=O)O2	> 100 µM (inactive)	> 100 µM (inactive)	–	–	–	–	–
NC(Cc1cccc([N+](=O)[O-])c1)C(=O)O (stereo not given)	> 100 µM (inactive)	> 100 µM (inactive)	> 100 µM (inactive)	> 100 µM (inactive)	–	–	–
C=C(CC[C@@H](C)[C@H]1CC[C@@]2(C)C3=C(CC[C@]12C)[C@@]1(C)CC[C@H](O)[C@@H](C)C1CC3)C(C)C (stereo not given in full)	1.48 µM (inactive)	1.6 µM (inactive)	1.17 µM (inactive)	–	–	–	–
CCN1CCN(c2nc3ccccc3nc2C(=O)c2ccc(OC)c(OC)c2)CC1	21.2 µM (inactive)	–	25.4 µM (inactive)	30.5 µM (inactive)	–	–	–
CC1(C)OCC(C2OC3OC(C)(C)OC3C2c2ccccc2)O1 (stereo not given)	–	20.7 µM (inactive)	37 µM (inactive)	45.6 µM (inactive)	–	–	–
OC1=C(c2ccccc2)C2=NCCN2c2ccccc21	95.7 µM (inactive)	28.1 µM (inactive)	41.2 µM (inactive)	84.1 µM (inactive)	–	–	–
